Measured values taken from ChEMBL document CHEMBL3272279, “Synthesis of 5-chloro-3'-nitro-4'-substituted salicylanilides, a new series of anthelmintic and antimicrobial agents” (1977).
≈ marks a conversion by molar mass, not a printed value. Calls of active or inactive are those of the source. No cut-off for these calls is given here.

Key:
Salmonella typhi = experiment: Antimicrobial activity against Salmonella typhi assessed as growth inhibition after 24 hrs by two-fold serial dilution technique; assay type: functional, organism-based; details: Salmonella enterica subsp. enterica serovar Typhi
[1] = system: Trichophyton mentagrophytes; experiment: Antimicrobial activity against Trichophyton mentagrophytes assessed as growth inhibition after 24 hrs by two-fold serial dilution technique; assay type: functional
Microsporum canis = experiment: Antimicrobial activity against Microsporum canis assessed as growth inhibition after 24 hrs by two-fold serial dilution technique; assay type: functional
Cryptococcus neoformans = experiment: Antimicrobial activity against Cryptococcus neoformans assessed as growth inhibition after 24 hrs by two-fold serial dilution technique; assay type: functional
Aspergillus niger = experiment: Antimicrobial activity against Aspergillus niger assessed as growth inhibition after 24 hrs by two-fold serial dilution technique; assay type: functional
Escherichia coli = experiment: Antimicrobial activity against Escherichia coli assessed as growth inhibition after 24 hrs by two-fold serial dilution technique; assay type: functional, organism-based
Bacillus subtilis = experiment: Antimicrobial activity against Bacillus subtilis assessed as growth inhibition after 24 hrs by two-fold serial dilution technique; assay type: functional, organism-based
[2] = system: Agrobacterium tumefaciens; experiment: Antimicrobial activity against Agrobacterium tumefaciens assessed as growth inhibition after 24 hrs by two-fold serial dilution technique; assay type: functional
Rodentolepis nana [3] = experiment: Cestodicidal activity against Hymenolepis nana infected in po dosed rat administered as single dose; assay type: functional
Staphylococcus aureus = experiment: Antimicrobial activity against penicillin-resistant Staphylococcus aureus assessed as growth inhibition after 24 hrs by two-fold serial dilution technique; assay type: functional
Candida albicans = experiment: Antimicrobial activity against Candida albicans assessed as growth inhibition after 24 hrs by two-fold serial dilution technique; assay type: functional
Rodentolepis nana [4] = experiment: Cestodicidal activity against Hymenolepis nana infected in rat at 250 mg/kg, po administered as single dose; assay type: functional, organism-based; design: dose 250 mg/kg

| SMILES | growth inhibition (GI) (Salmonella typhi) | MIC [1] [µg/mL] | MIC (Microsporum canis) [µg/mL] | MIC (Cryptococcus neoformans) [µg/mL] | MIC (Aspergillus niger) [µg/mL] | growth inhibition (GI) (Escherichia coli) | growth inhibition (GI) (Bacillus subtilis) | MIC [2] [µg/mL] | MED98 (Rodentolepis nana [3]) [mg/kg] | MIC (Staphylococcus aureus) [µg/mL] | growth inhibition (GI) (Candida albicans) | MIC (Candida albicans) [µg/mL] | Activity (Rodentolepis nana [4]) |
| --- | --- | --- | --- | --- | --- | --- | --- | --- | --- | --- | --- | --- | --- |
| CC1CCCCN1c1ccc(NC(=O)c2cc(Cl)ccc2O)cc1[N+](=O)[O-] (stereo unspecified) | inactive | 12.5 (≈ 32.1 µM) | 6.25 (≈ 16 µM) | > 100 | > 100 | inactive | inactive | > 100 | 50 | 0.0975 (≈ 0.25 µM) | inactive |  |  |
| O=C(Nc1ccc(N2CCCCC2)c([N+](=O)[O-])c1)c1cc(Cl)ccc1O | inactive | > 100 | > 100 | 1.56 (≈ 4.15 µM) | 12.5 (≈ 33.3 µM) | inactive | inactive | 12.5 (≈ 33.3 µM) | 250 | 0.195 (≈ 0.519 µM) |  | 25 (≈ 66.5 µM) |  |
| CC1CCN(c2ccc(NC(=O)c3cc(Cl)ccc3O)cc2[N+](=O)[O-])CC1 | inactive | > 100 | > 100 | 3.12 (≈ 8.02 µM) | > 100 | inactive | inactive | 25 (≈ 64.1 µM) | 250 | 0.0975 (≈ 0.25 µM) | inactive |  |  |
| CCC1CCCCN1c1ccc(NC(=O)c2cc(Cl)ccc2O)cc1[N+](=O)[O-] (stereo unspecified) | inactive | 6.25 (≈ 15.5 µM) | 6.25 (≈ 15.5 µM) | 25 (≈ 61.9 µM) | > 100 | inactive | inactive | > 100 | 100 | 0.39 (≈ 0.966 µM) | inactive |  |  |
| Cc1cccc(Oc2ccc(NC(=O)c3cc(Cl)ccc3O)cc2[N+](=O)[O-])c1 | inactive | 1.56 (≈ 3.91 µM) | 0.78 (≈ 1.96 µM) | > 100 | > 100 | inactive | inactive | > 100 |  | 0.195 (≈ 0.489 µM) | inactive |  | inactive |
| O=C(Nc1ccc(Br)cc1)c1cc(Br)cc(Br)c1O [TRIBROMSALAN] | inactive | 1.56 (≈ 3.47 µM) | 0.78 (≈ 1.73 µM) | 6.25 (≈ 13.9 µM) | 12.5 (≈ 27.8 µM) | inactive | inactive | 12.5 (≈ 27.8 µM) |  | 0.0975 (≈ 0.217 µM) |  |  |  |
| O=C(Nc1ccc(N2CCC(c3ccccc3)CC2)c([N+](=O)[O-])c1)c1cc(Cl)ccc1O | inactive | 6.25 (≈ 13.8 µM) | 6.25 (≈ 13.8 µM) | 3.12 (≈ 6.92 µM) | > 100 | inactive | inactive | 25 (≈ 55.3 µM) | 250 | 0.39 (≈ 0.863 µM) | inactive |  |  |
| O=C(Nc1ccc(N2CCC(O)(c3ccccc3)CC2)c([N+](=O)[O-])c1)c1cc(Cl)ccc1O | inactive | 6.25 (≈ 13.4 µM) | 6.25 (≈ 13.4 µM) | 3.12 (≈ 6.68 µM) | > 100 | inactive | inactive | 25 (≈ 53.4 µM) | 250 | 0.39 (≈ 0.833 µM) | inactive |  |  |
| CCOc1ccc(NC(=O)c2cc(Cl)ccc2O)cc1[N+](=O)[O-] | inactive | > 100 | > 100 | > 100 | > 100 | inactive | inactive | > 100 |  | > 100 | inactive |  | inactive |
| CN1CCN(c2ccc(NC(=O)c3cc(Cl)ccc3O)cc2[N+](=O)[O-])CC1 | inactive | 0.195 (≈ 0.499 µM) | 0.39 (≈ 0.998 µM) | 25 (≈ 64 µM) | 25 (≈ 64 µM) | inactive | inactive | 25 (≈ 64 µM) | 100 | 0.195 (≈ 0.499 µM) |  | 25 (≈ 64 µM) |  |
| O=C(Nc1ccc(Oc2ccccc2)c([N+](=O)[O-])c1)c1cc(Cl)ccc1O | inactive | 1.56 (≈ 4.05 µM) | 0.78 (≈ 2.03 µM) | > 100 | 25 (≈ 65 µM) | inactive | inactive | > 100 | 250 | 0.00609 (≈ 0.0158 µM) | inactive |  |  |
| O=C(Nc1ccc(N2CCN(c3ccccc3)CC2)c([N+](=O)[O-])c1)c1cc(Cl)ccc1O | inactive | 3.12 (≈ 6.9 µM) | 1.56 (≈ 3.44 µM) | 12.5 (≈ 27.6 µM) | 25 (≈ 55.2 µM) | inactive | inactive | > 100 | 50 | 0.39 (≈ 0.861 µM) | inactive |  |  |
| O=C(Nc1ccc(N2CCCCCC2)c([N+](=O)[O-])c1)c1cc(Cl)ccc1O | inactive | 25 (≈ 64.1 µM) | 25 (≈ 64.1 µM) | > 100 | > 100 | inactive | inactive | > 100 | 50 | 0.0975 (≈ 0.25 µM) | inactive |  |  |
| O=C(Nc1ccc([N+](=O)[O-])cc1Cl)c1cc(Cl)ccc1O [NICLOSAMIDE] |  |  |  |  |  |  |  |  | 50 |  |  |  |  |
| CC1CCCN(c2ccc(NC(=O)c3cc(Cl)ccc3O)cc2[N+](=O)[O-])C1 (stereo unspecified) | inactive | 6.25 (≈ 16 µM) | 3.12 (≈ 8.02 µM) | 25 (≈ 64.1 µM) | > 100 | inactive | inactive | > 100 | 250 | 0.39 (≈ 1 µM) | inactive |  |  |
| O=C(Nc1ccc(N2CCCC2)c([N+](=O)[O-])c1)c1cc(Cl)ccc1O | inactive | > 100 | > 100 | 25 (≈ 69.1 µM) | 25 (≈ 69.1 µM) | inactive | inactive | > 100 |  | 0.0975 (≈ 0.269 µM) |  | 25 (≈ 69.1 µM) | inactive |
| O=C(Nc1ccc(Oc2ccc(Cl)cc2)c([N+](=O)[O-])c1)c1cc(Cl)ccc1O | inactive | 1.56 (≈ 3.72 µM) | 0.78 (≈ 1.86 µM) | > 100 | 25 (≈ 59.6 µM) | inactive | inactive | 25 (≈ 59.6 µM) |  | 0.78 (≈ 1.86 µM) | inactive |  | inactive |
| O=C(Nc1ccc(NC2CCCCC2)c([N+](=O)[O-])c1)c1cc(Cl)ccc1O | inactive | 3.12 (≈ 8.02 µM) | 3.12 (≈ 8.02 µM) | 25 (≈ 64.1 µM) | 25 (≈ 64.1 µM) | inactive | inactive | > 100 | 30 | 0.0975 (≈ 0.25 µM) | inactive |  |  |
